Results taken from PMC8315801, “The fluoride permeation pathway and anion recognition in Fluc family fluoride channels” (eLife, 2021).

Legend:
Test in all cases: biochemical
Fluc-Bpe [1] = target: Fluc-Bpe (Bordetella pertussis, UniProt Q7VYU0, R29K)
From the text: planar lipid bilayer, block of fluoride current, two-site fit on Fluc-Bpe

Fluc-Bpe [2] = target: Fluc-Bpe (Bordetella pertussis, UniProt Q7VYU0, E88Q/R29K/S83C)
From the text: (§1) planar lipid bilayer, block of fluoride current, oriented channels, single-site fit on Fluc-Bpe

Fluc-Bpe [3] = target: Fluc-Bpe (Bordetella pertussis, UniProt Q7VYU0, R29K/S83C)
From the text: as §1

Sequence of Fluc-Bpe (Bordetella pertussis, UniProt Q7VYU0, R29K) (Q7VYU0 whole entry R29K): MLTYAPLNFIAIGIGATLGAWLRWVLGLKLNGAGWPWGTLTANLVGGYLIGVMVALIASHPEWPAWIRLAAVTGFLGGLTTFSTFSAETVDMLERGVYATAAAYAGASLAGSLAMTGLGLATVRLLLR
Sequence of Fluc-Bpe (Bordetella pertussis, UniProt Q7VYU0, E88Q/R29K/S83C) (Q7VYU0 whole entry E88Q/R29K/S83C): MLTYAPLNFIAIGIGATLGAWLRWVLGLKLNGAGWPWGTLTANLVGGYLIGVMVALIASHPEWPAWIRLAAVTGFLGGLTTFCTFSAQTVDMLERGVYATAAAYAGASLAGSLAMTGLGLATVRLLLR
Sequence of Fluc-Bpe (Bordetella pertussis, UniProt Q7VYU0, R29K/S83C) (Q7VYU0 whole entry R29K/S83C): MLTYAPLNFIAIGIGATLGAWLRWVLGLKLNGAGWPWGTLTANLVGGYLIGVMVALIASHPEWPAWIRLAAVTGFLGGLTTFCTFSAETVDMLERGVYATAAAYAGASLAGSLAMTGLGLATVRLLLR

Structure (SMILES): O=[N+]([O-])O [NO3^-]
- Ki (Fluc-Bpe [1]): 45 mM

Structure (SMILES): N#CO [OCN^-]
- Ki (Fluc-Bpe [2]): 48.9 mM
- Ki (Fluc-Bpe [3]): 7.9 mM
- Ki (Fluc-Bpe [1]): 6.8 mM

Structure (SMILES): N#CS [SCN^-]
- Ki (Fluc-Bpe [1]): 9 mM
